Legend:
[1] = system: 20S proteasome α-subunits; test: Western blotting of 20S proteasome α-subunits in gastrocnemius muscle of MAC16 mice; type: in vivo, NMRI mice
[2] = system: soleus muscle of mice bearing the MAC16 tumor; test: Soleus muscle weight and protein degradation (tyrosine release) in MAC16 mice; type: in vivo, NMRI mice; settings: EPA 0.6 g/kg, HMB 0.25 g/kg or the combination for 3 days
Excerpt: Pure strain male NMRI mice (average weight 25 g) were obtained from our own inbred colony and were transplanted with fragments of the MAC16 tumor s.c. into the flank by means of a trochar, selecting from donor animals with established weight loss as described in Bibby, M. C. et al. Characterization of a transplantable adenocarcinoma of the mouse colon producing cachexia in recipient animals. J. Natl. Cancer Inst., 78: 539-546, 1987. Transplanted animals were fed a rat and mouse breeding diet (Special Diet Services, Witham, United Kingdom) and water ad libitum, and weight loss was evident 10-12 days after tumor implantation. Animals just prior to the development of weight loss were randomized to receive daily either EPA (in olive oil), HMB (in PBS) or the combination as described in the figure legends administered p.o. by gavage, while control animals received either olive oil or PBS. EPA (98% as free acid) was purchased from Biomol Research Laboratories Inc., PA, USA. HMB (as the calcium salt) was obtained from Abbott Laboratories, Columbus, Ohio, USA. All groups contained a minimum of 6 mice. Tumor volume, body weight and food and water intake were monitored daily. […] Protein degradation was determined by the release of tyrosine over a 2 h period as described in […]. et al. A fluorimetric method for the estimation of tyrosine in plasma and tissues. […]

[3] = system: proteasome; test: Functional proteasome 'chymotrypsin-like' enzyme activity in gastrocnemius muscle of MAC16 mice; type: in vivo, NMRI mice; settings: HMB 0.25 g/kg, EPA 0.6 g/kg or combination, 3 days
Procedure: Functional proteasome activity was determined by measuring the ‘chymotrypsin-like’ enzyme activity, the predominant proteolytic activity of the β-subunits of the proteasome according to the method of Orino, E. et al. ATP-dependent reversible association of proteasomes with multiple protein components to form 26S complexes that degrade ubiquitinated proteins in human HL-60 cells. FEBS Lett., 284: 206-210, 1991. Muscles were rinsed with ice-cold PBS, minced and sonicated in 20 mM Tris. HCl, pH 7.5, 2 mM ATP, 5 mM MgCl2 and 1 mM DTT. The sonicate was then centrifuged for 10 min at 18,000 g, at 4° C. and the supernatant was used to determine ‘chymotrypsin-like’ enzyme activity by the release of aminomethyl coumarin (AMC) from the fluorogenic substrate succinyl-LLVY-AMC. Activity was measured in the absence and presence of the specific proteasome inhibitor lactacystin (10 μM). Only lactacystin suppressible activity was considered to be proteasome specific.

[4] = system: NF-κB; test: NF-κB nuclear accumulation / binding to DNA (EMSA) in murine myotubes; type: cell-based
Procedure: DNA binding proteins were extracted from myotubes by the method of Andrews, N. C. et al. A rapid micropreparation technique for extraction of DNA-binding proteins from limiting numbers of mammalian cells. Nucleic Acids Res., 19: 2499, 1991, which utilizes hypotonic lysis followed by high salt extraction of nuclei. The EMSA (electrophoretic mobility shift assay) binding assay was carried out according to the manufacturer's instructions. The in vitro study described in Example III above also evaluated the effect of HMB on molecules that are key mediators in the pathway of inflammation. This experiment was conducted as described in Example III.

[5] = system: MSS1, an ATPase subunit of the 19S proteasome regulatory complex; test: Western blotting of MSS1 in gastrocnemius muscle of MAC16 mice; type: in vivo, NMRI mice
[6] = system: β subunits of the proteasome; test: 'Chymotrypsin-like' enzyme activity in PIF-treated murine myotubes; type: cell-based
Procedure: The functional activity of the β subunits of the proteasome was determined as the ‘chymotrypsin-like’ enzyme activity obtained fluorimetrically according to the method of Orino, E. et al. ATP-dependent reversible association of proteasomes with multiple protein components to form 26S complexes that degrade ubiquitinated proteins in human HL-60 cells. FEBS Lett., 284: 206-210, 1991. Myotubes were exposed to PIF for 24 h with or without EPA or HMB added 2 h prior to PIF and enzyme activity was determined in a supernatant fraction (Whitehouse, A. S. et al. Increased expression of the ubiquitin-proteasome pathway in murine myotubes by proteolysis-inducing factor (PIF) is associated with activation of the transcription factor NF-κB. Br. J. Cancer, 89: 1116-1122, 2003) by the release of aminomethyl coumarin (AMC) from succinyl-LLVY-AMC (0.1 mM) in the presence or absence of the specific proteasome inhibitor lactacystin (10 μM) (Fenteany, G. et al. Lactacystin, proteasome function and cell fate. J. Biol. Chem., 273: 8545-8548, 1998). Only lactacystin suppressible activity was considered to be proteasome specific. Activity was adjusted for the protein concentration of the sample, determined using the Bradford assay (Sigma Chemical Co., Dorset, United Kingdom) using bovine serum albumin as standard.

[7] = HMB 0.25 g/kg, EPA 0.6 g/kg or combination, 3 days

CC(C)(O)CC(=O)O [HMB, beta-hydroxy-beta-methylbutyric acid]
expression of 20S proteasome α-subunits [1, 7]: attenuated | reduction of protein expression of 20S α-subunits ([1]; summary of Examples I-IV): at least 50% | tyrosine release (total protein degradation in soleus muscle) [2]: as effective as EPA | functional proteasome activity ('chymotrypsin-like' enzyme activity) [3]: attenuated | inhibition of binding of NF-κB to DNA ([4]; 25 μM HMB): Only partial inhibition | nuclear accumulation of NF-κB ([4]; 50 μM HMB): prevent nuclear accumulation of NF-κB | expression of MSS1 [5, 7]: attenuated | reduction of protein expression of MSS1 ([5]; summary of Examples I-IV): at least 50% | attenuation of PIF-induced increase in 'chymotrypsin-like' enzyme activity ([6]; 25 μM HMB): completely attenuated | attenuation of PIF-induced increase in 'chymotrypsin-like' enzyme activity ([6]; 50 μM): completely attenuated
